One data set concerns H2030 cells. Briefly: Cell counting (proliferation) assay in H2030 cells. The class given is cell-based, human. As to conditions: for IC50 / IC90: Homo sapiens, NCI-H2030. The method, then:
A549 and H2030 cells cultured in RPMI 1640 containing 5% FBS in 12 well-plates at 20% confluence were treated with Oxy210 for 6 days and then trypsinized, spun down and resuspended in fresh medium. For the Carboplatin (CP) and Oxy210 co-treatment experiments, A549 cells cultured in RPMI 1640 containing 2% FBS in 12 well-plates at 20% confluence were treated with CP at different concentrations in the presence or absence of Oxy210 for 6 days. For the TGFβ-induced drug resistance assay, A549 cells cultured in RPMI 1640 containing 2% FBS in 12 well-plates at 10% confluence were pre-treated with TGFβ1 alone or together with Oxy210 for 3 days, and then treated with 20 μM CP for 4 days. An aliquot of cell suspension was applied to a hemocytometer and the cells were then counted under a light microscope.
Statistical analyses were performed using the StatView 5 program (SAS Institute, Cary, NC, USA). All p values were calculated using ANOVA and Fisher’s projected least significant difference (PLSD) significance test. A value of p < 0.05 was considered significant. The IC 50 dose-response curves shown in Figure 4b and Figure 7a–c were modeled using a five-parameter logistic model. This model allows for asymmetric curves and automatically estimates the mean maximum and minimum response. Based on this model, IC 50 values were estimated corresponding to the dose halfway between min and max response. Models of dose versus response and dose versus log response were also evaluated (see Supplementary Materials). The R square statistic was computed as a measure of model fit.
Figure 7 Inhibition of NSCLC cell proliferation by Oxy210. A549 (a), (c) and H2030 (b) cells were treated with the test agents as indicated in RPMI 1640 containing 5% FBS for 5 days and then were trypsinized and counted as described in Methods and Materials section. Data from a representative experiment are reported as the mean of triplicate determinations ± SD (* p < 0.05 vs. control; ** p < 0.01 vs. control).

The next data set has as its system A549 cells. Briefly: Matrigel invasion assay. Type of data set: cell-based, human. As to conditions: Matrigel chambers, 24 h. As to the method:
Invasion assays were performed using 24-well Matrigel invasion chambers (Corning, Corning, NY, USA), with the protocol provided by the manufacturer. A549 cells in 6-well plate starved in RPMI 1640 containing 0.1% FBS for 24 h were pre-treated with Oxy210 or DMSO for 2 h. 2 × 10^4 cells were seeded in each of the upper chambers containing RPMI 1640 supplemented with 0.1% FBS and the test agents. Each of the lower chambers contained RPMI 1640 supplemented with 5% FBS and the corresponding test agents. The cells were cultured for 24 h before assessment of cell invasion. Non-invaded cells in the upper surface of the membrane were removed using a cotton swab and the invaded cells in the lower surface were fixed and stained with 100% methanol and 0.4% trypan blue, respectively. The invaded cells were imaged and counted under the microscope at 40X total magnification.
Figure 9 Inhibition of TGFβ-induced invasive activity of A549 cells. In vitro invasion assays were performed using chambers with matrigel-coated membrane as described in the Materials and Methods section. (a) Images of invaded cells on the membranes. (b) Quantitative analysis of invasion of A549 cells induced by TGFβ in the absence or presence of Oxy210. Data from a representative experiment are reported as the mean of triplicate determinations ± SD (** p < 0.01 vs. TGFβ treated cells; ## p < 0.01 vs. control).

Data set [1] has as its system TGFβ induced activity of SBE-luciferase reporter. Briefly: SBE-luciferase (Smad response-element) reporter assay in NIH3T3-E1 cells. Particulars: 48 hrs. The class given is cell-based, mouse. For orientation: Reporter assays use an easily measured gene product as a stand-in for the process of interest.
Protocol: NIH3T3-E1 cells cultured in 24 well-plates at 90% confluence were transiently transfected with 0.1 μg of Smad response-element reporter (SBE-Luciferase) plasmid (Qiagen), or with 0.1 μg of Gli response-element reporter (pGL3b-8xGli-Luciferase) plasmid, and 10 ng of pSV40-Renilla-Luciferase plasmid (Promega, Madison, WI, USA) with or without co-transfection with 10ng of Gli1 overexpression vector, pSRα-Gli1 using a Lipofectamine LTX Plus transfection reagent, as previously described [23]. […] 6 hrs after transfection, cells were treated with test agents for 72 h. […] Twenty-four hours after transfection, cells were treated with test agents for 20 h. Then the firefly and Renilla luciferase activities were measured using a dual luciferase kit (Promega) and a GloMax-96 Microplate Luminometer (Promega) or a plate reader-SpectraMax iD3 (Molecular Devices, San Jose, CA, USA). The firefly luciferase activities were normalized to the Renilla luciferase activities.
(d) NIH3T3 cells cultured in 24 well-plates were transfected with a Smad response element reporter (SBE-Luciferase) plasmid and a pTK-Renilla-Luciferase plasmid. 6 hrs after transfection, cells were treated with the test agents as indicated for 48 hrs. Luciferase activity was measured and normalized to the Renilla luciferase activity.
Data set [2] is described as follows: Single oral dose pharmacokinetic study in mice. The class given is in vivo. Particulars: mouse, plasma, oral gavage, single dose 50 mg/kg. The method, then:
In an initial assessment of drug-like properties of Oxy210, we performed a pharmacokinetic (PK) study in mice. Oxy210, formulated in 3% DMSO + 7% Ethanol + 5% PEG400 + 85% corn oil, was administered to balb/c mice by oral gavage as a single dose of 50 mg/kg. Plasma samples were taken at 10 min, 30 min, 1 h, 2 h, 4 h, and 8h, followed by LC/MS analysis. […] Additional PK studies in mice were performed with Oxy210 in a dose escalation study with repeated once daily oral dosing (50 mg/kg, 200 mg/kg and 400 mg/kg) for 7 days.
Figure 13 Drug-like properties of Oxy210. (a) A single dose of Oxy210 at 50 mg/kg, formulated in 3% DMSO + 7% Ethanol + 5% PEG400 + 85% corn oil, was administered to balb/c mice by oral gavage. Plasma samples were taken at 10 min, 30 min, 1h, 2h, 4h, 6h, and 8h, followed by LC/MS analysis of the plasma. (b) Evolution of Oxy210 and Oxy186 from parent compound Oxy16 and their drug-like properties.

The next data set is described as follows: pKa. The class given is physicochemical. As to conditions: printed in Figure 1, method not stated. The text has this: Figure 1 The molecular structures of Cholesterol, Oxy8, Oxy133, Oxy16, Oxy186 and Oxy210. TEXT PRINTED IN THE PICTURE: Oxy210: pKa ~ 5
The nature of data set [3]: Metabolic stability in human liver microsomes. The class given is in vitro ADME.

Consider one compound from PMC6829886, “Inhibition of Non-Small Cell Lung Cancer Cells by Oxy210, an Oxysterol-Derivative that Antagonizes TGFβ and Hedgehog Signaling” (Cells, 2019).

The IC90 is the concentration needed for an effect of 90%. As usually defined, the MRT is the average time that molecules of a dose stay in the body. The term AUC(0-inf) denotes the area under the concentration-time curve extrapolated to infinity. A high value points to more exposure. What is called Tmax is the time at which the peak concentration occurs. The term Cmax denotes the highest concentration seen after dosing. What is called pKa is the negative logarithm of the acid dissociation constant. Lower therefore signals a stronger acid or weaker base. In general, half-life refers to the time in which the quantity being followed falls by half. A word on the share remaining: it is what is left of the initial amount, in per cent.

Where “and” joins values, the source holds several entries; their conditions need not be identical. Identical values can stand only once. Like-named read-outs stand apart in the source and are kept apart here.

Regarding `C[C@]12CC[C@H]3[C@@H](CC=C4C[C@@H](O)CC[C@@]43C)[C@@H]1CC[C@@H]2[C@](C)(O)CCc1cccnc1` [Oxy210, (3S,8S,9S,10R,13S,14S,17S)-17-((R)-2-hydroxy-4-(pyridin-3-yl)butan-2-yl)-10,13-dimethyl-2,3,4,7,8,9,10,11,12,13,14,15,16,17-tetradecahydro-1H-cyclopenta[a]phenanthren-3-ol], the “IC10 Estimate, dataset 3 - Fig 7b, log 10 scale Y” value with H2030 cells (H2030 cells/well, log 10 scale Y) was 1.89. Besides, the IC10 Estimate, dataset 3 - Fig 7b, original scale Y in the data set on H2030 cells (H2030 cells/well, original scale Y) is 420 nM. The IC50 is 1660 ± 250 nM with H2030 cells (H2030 cells, 5% FBS, ± SE, read-out: IC50, anti-proliferative effect (cell counting)) and 2520 nM with H2030 cells (H2030 cells/well, log 10 scale Y, read-out: IC 50 Estimate, dataset 3 - Fig 7b, log 10 scale Y (converted)). Further, the IC90 in the data set with H2030 cells (H2030 cells/well, log 10 scale Y, read-out: IC90 Estimate, dataset 3 - Fig 7b, log 10 scale Y (converted)) is 3370 nM; with H2030 cells (H2030 cells/well, original scale Y, read-out: IC90 Estimate, dataset 3 - Fig 7b, original scale Y) it was 4090 nM. In addition, the TGFβ-induced invasive activity result with A549 cells was “inhibited this invasive activity in a dose dependent manner”. In data set [1], the “TGFβ induced activity of SBE-luciferase reporter” value is reported as “significantly inhibited”. In data set [2] (balb/c, po, 50 mg/kg, read-out: mean residence time (MRT)), the MRT stood at 8 h. The AUC(0-inf) in data set [2] (balb/c mice) was 9210 ng·h/mL. In addition, the Tmax in data set [2] (balb/c mice) is 0.5 h. For the same compound, the Cmax in data set [2] (balb/c mice) is 1970 ng/mL and 4.7 µM. Further, in “pKa”, the pKa was about 5. The half-life in data set [3] (human, liver microsomes, read-out: HLM, Half-Life) was 1.15 h. The share remaining at 1 h in data set [3] (read-out: HLM, % Remaining after 60 min) was 55%.
